System: AMPA receptor
Experiment: Cortical slice studies: responses to AMPA in rat cortical slice
Format: cell-based
Settings: from righthand shift in AMPA concentration-response curves, read-out: apparent equilibrium constant (Kb) in response to AMPA
Experimental: The compounds useful in this invention potently and selectively block responses to NMDA and/or AMPA in a brain slice from rat cortex, and inhibit the binding of agonists and antagonists to the strychnine-insensitive site present on the NMDA receptor and/or AMPA binding to rat forebrain membranes.
The effects of compounds of the invention on responses to NMDA and AMPA were assessed using the rat cortical slice as described by Wong et al., Proc. Natl. Acad. Sci. USA, 1986, 83, 7104. The apparent equilibrium constant (Kb) was calculated from the righthand shift in the NMDA or AMPA concentration-response curves produced by the compound under test.

## O=c1[nH]c2cc([N+](=O)[O-])ccc2c(O)c1-c1ccccc1 [Example 12, 4-Hydroxy-7-nitro-3-phenyl-2(1H)-quinolone]
  Kb: < 150 µM
